From patent US6476021B1 (priority 1997, dated 2002)
pIC50: −log10 of the molar value. Where a name gives a salt, the structure may show the parent alone.

Legend:
[1] = rat, in vivo, 100 mg/kg
PDE type VI = PDE type VI (Bos taurus, UniProt P11541+P23439); assay: biochemical
PDE type V = PDE type V (Canis lupus familiaris, UniProt O77746); assay: biochemical
[2] = intranasal administration
[3] = rats
From the text: (§1) Eight-week-old male Wistar rats were anesthetized with intraperitoneal injection of urethane at 1 g/kg. The cervical portion was incised so that the trachea was exposed, and a polyethylene tube (SP120, Natsume) was inserted into the trachea. Then, a part of the esophagus was incised and a polyethylene tube with the same diameter was inserted into postnasal cavity, the tip was closed with absorbent cotton and glue. Leak of the drug solution from the nasoplatine was avoided by closing it with synthetic glue. Drugs were dissolved in 0.1% tartaric acid solution and administered through the nostrils at 500 μl/kg with micropipette and the nostrils were rapidly closed with glue. For the control, drugs were intravenously administered to rats. Constant volume of blood was intermittently collected from the tail vein into heparinized capillary after administration, and plasma was separated by centrifugation. Constant volume of plasma was extracted with t-butyl-methyl-ether three times and the organic phase was evaporated and dissolved in the HPLC initial phase. Constant volume of the organic phase was applied to the HPLC system equipped with an ultraviolet detector, and plasma drug concentration was determined with the reverse phase column. The time to reach the maximal concentration (Tmax), the mean residence time (MRT) and the mean absorption time (MAT) were calculated from measured values.

in vivo = conditions: male, Wistar, rat, plasma, inhaled or intranasal, 0.3 mg/kg
From the text: as §1

PDE type III = PDE type III (Canis lupus familiaris, UniProt A0A8I3NYE0); conditions: read-out: Inhibition Activity IC50 Type III; PDE type III from canine aorta; 1 μM substrate
Sequence of PDE type III (A0A8I3NYE0 1-1135): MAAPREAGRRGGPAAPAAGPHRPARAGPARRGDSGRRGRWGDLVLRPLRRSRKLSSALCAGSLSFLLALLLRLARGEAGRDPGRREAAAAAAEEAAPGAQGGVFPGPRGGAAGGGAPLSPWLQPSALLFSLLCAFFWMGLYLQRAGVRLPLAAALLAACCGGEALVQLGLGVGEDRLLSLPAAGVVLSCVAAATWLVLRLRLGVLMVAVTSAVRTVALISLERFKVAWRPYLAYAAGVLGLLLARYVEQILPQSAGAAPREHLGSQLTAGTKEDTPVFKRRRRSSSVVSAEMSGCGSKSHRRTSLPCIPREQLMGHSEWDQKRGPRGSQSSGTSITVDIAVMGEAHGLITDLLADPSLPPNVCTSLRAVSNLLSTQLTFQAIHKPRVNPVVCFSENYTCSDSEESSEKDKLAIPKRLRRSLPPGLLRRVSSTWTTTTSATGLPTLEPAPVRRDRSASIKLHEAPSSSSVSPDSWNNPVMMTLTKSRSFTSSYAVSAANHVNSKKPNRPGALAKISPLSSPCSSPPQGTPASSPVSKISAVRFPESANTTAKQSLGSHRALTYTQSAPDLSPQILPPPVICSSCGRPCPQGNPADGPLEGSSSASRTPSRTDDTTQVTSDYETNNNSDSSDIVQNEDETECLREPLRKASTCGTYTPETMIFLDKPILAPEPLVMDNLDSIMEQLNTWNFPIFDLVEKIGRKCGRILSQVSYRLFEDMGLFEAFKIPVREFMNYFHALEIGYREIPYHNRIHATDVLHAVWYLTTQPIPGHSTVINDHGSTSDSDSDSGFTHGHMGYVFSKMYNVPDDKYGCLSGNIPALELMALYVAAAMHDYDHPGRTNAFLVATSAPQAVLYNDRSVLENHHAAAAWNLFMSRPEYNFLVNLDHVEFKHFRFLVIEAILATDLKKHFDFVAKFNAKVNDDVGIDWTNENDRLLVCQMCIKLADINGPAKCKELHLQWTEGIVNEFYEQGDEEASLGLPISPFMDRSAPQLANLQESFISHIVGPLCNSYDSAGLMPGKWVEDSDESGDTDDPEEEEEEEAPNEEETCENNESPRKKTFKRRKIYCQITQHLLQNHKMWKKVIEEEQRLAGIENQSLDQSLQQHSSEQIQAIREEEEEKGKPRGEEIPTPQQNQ

Sequence of PDE type VI (P11541 2-856): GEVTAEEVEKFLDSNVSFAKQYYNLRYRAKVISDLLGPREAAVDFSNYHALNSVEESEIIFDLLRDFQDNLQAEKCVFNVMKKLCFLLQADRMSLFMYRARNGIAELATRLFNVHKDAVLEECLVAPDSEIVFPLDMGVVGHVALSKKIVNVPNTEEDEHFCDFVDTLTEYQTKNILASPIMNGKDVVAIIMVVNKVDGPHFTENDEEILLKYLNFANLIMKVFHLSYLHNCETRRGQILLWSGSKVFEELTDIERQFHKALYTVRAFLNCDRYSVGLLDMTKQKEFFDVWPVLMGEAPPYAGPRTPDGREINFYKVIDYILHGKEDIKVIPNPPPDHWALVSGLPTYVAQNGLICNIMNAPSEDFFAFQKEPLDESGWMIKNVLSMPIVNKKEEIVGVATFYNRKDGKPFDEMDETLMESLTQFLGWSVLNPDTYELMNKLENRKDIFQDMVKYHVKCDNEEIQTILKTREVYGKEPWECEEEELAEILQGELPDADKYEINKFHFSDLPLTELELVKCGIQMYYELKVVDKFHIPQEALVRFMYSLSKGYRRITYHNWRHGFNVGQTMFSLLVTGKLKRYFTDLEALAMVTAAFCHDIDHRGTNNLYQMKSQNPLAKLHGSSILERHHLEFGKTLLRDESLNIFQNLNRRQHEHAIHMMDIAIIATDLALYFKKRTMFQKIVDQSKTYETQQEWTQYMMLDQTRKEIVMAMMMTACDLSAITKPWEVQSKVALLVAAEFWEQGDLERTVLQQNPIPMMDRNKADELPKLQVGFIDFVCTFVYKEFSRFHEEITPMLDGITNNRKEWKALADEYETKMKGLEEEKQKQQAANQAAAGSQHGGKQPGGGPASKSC
Sequence of PDE type VI (P23439 2-850): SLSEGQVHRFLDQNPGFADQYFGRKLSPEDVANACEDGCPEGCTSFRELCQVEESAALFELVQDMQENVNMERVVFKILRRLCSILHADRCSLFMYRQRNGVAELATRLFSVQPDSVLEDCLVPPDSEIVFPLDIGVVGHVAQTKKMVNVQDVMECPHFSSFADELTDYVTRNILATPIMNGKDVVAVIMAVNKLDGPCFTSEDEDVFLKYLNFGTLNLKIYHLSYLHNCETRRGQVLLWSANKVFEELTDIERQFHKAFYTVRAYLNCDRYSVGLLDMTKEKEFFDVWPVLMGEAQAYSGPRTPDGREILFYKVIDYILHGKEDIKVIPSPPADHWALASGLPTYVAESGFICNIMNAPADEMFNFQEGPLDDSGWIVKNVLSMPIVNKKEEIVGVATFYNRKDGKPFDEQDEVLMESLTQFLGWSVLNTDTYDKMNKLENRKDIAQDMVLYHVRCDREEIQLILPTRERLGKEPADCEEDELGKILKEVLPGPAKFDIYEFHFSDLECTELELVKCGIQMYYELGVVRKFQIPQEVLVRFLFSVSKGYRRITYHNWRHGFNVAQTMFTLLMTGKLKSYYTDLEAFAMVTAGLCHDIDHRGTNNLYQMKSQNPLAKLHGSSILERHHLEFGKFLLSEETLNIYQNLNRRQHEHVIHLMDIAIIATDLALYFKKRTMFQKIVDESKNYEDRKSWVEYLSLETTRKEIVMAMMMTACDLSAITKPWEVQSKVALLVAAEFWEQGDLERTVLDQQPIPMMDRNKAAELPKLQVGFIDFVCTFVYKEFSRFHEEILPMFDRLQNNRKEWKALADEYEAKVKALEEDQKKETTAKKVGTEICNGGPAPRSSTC

melting point | SMILES | other results
232.8 to 234.5 °C | CN1c2ccccc2-n2ccc(=O)c3cccc1c32 | 
280 °C (dec.) | O=c1ccn2c3ccc(Cl)cc3c3cncc1c32 | 
> 300 °C | O=c1ccn2c3c(cc(Cl)cc13)Oc1cc(Cl)ccc1-2 | 
211.3 °C (dec.) | O=c1ccn2c3cnccc3c3cccc1c32 | 
277.1 to 280.3 °C | COc1cc2c3c(c1)c(=O)c(Cc1cccnc1)cn3-c1cc(Br)ccc1O2 | 
247.5 to 251.1 °C | COc1cc2c(=O)c(Cc3cccnc3)cn3c4cc(Br)ccc4c(=O)c(c1)c23 | 
> 300 °C | O=c1c(Cc2cccnc2)cn2c3cc(Br)ccc3c(=O)c3cc(O)cc1c32 | 
185.7 to 187.4 °C | COc1cc2c3c(c1)c(=O)c(Cc1cccnc1)cn3-c1cc(Br)ccc1S2 | 
297.4 °C (dec.) | O=c1c(Cc2cccnc2)cn2c3c(cc(O)cc13)Sc1ccc(Br)cc1-2 | 
> 300 °C | Cc1cn2c3c(cc(O)cc3c1=O)Sc1ccc(Br)cc1-2 | 
188.9 to 197.8 °C | Cc1cn2c3c(cc(OCCCO)cc3c1=O)Sc1ccc(Br)cc1-2 | 
> 300 °C | O=c1ccn2c3c(cc(Cl)cc13)Sc1cc(Cl)ccc1-2 | 
268.1 to 274.3 °C | O=c1c(Cc2ccccc2)cn2c3c(cc(O)cc13)Sc1ccc(Br)cc1-2 | 
206.6 to 210.7 °C | COc1cc2c3c(c1)c(=O)c(Cc1cncnc1)cn3-c1cc(Br)ccc1S2 | 
165 °C (dec.) | O=c1c(Cc2cccnc2)cn2c3cc(Br)ccc3c(=O)c3cc(OCCCO)cc1c32 [Example 34, 10-bromo-5-(3-hydroxypropyloxy)-2-(3-pyridylmethyl)-3H,7H-pyrido[3,2,1-de]acridin-3,7-dione] | 
94.6 to 96.4 °C | O=c1c(Cc2cccnc2)cn2c3c(cc(OCc4ccccn4)cc13)Sc1ccc(Br)cc1-2 [Example 44, 10-bromo-2-(3-pyridylmethyl)-5-(2-pyridylmethyloxy)-3H-pyrido[3,2,1-kl]phenothiazin-3-one] | 
166.5 to 169 °C | O=c1c(Cc2cccnc2)cn2c3c(cc(OCCN4CCCCC4)cc13)Sc1ccc(Br)cc1-2 [Example 50] | 

Second part, the molecule before the results:

SMILES | melting point | other results
CC(=O)N1c2ccccc2-n2ccc(=O)c3cccc1c32 | 275 °C (dec.) | 
O=c1c(Cc2cccnc2)cn2c3c(cc(OCCCO)cc13)Sc1ccc(Br)cc1-2 | 189.1 to 191.3 °C | 
CN(C)CCCOc1cc2c3c(c1)c(=O)c(Cc1cccnc1)cn3-c1cc(Br)ccc1S2 | 160.3 to 163.3 °C | 
COc1cc2c3c(c1)c(=O)c(Cc1cccnc1)cn3-c1ccc(Br)cc1S2 | 137.3 to 138.1 °C | 
O=c1c(Cc2cccnc2)cn2c3c(cc(OCCCO)cc13)Sc1cc(Br)ccc1-2 | 215.7 to 218.4 °C | 
COc1cc2c3c(c1)c(=O)c(C)cn3-c1cc(Br)ccc1S2 | 231.7 to 233.7 °C | 
COc1cc2c3c(c1)c(=O)c(Cc1ccccc1)cn3-c1cc(Br)ccc1S2 | 218.1 to 219.3 °C | 
O=c1c(Cc2ccccc2)cn2c3c(cc(OCCCO)cc13)Sc1ccc(Br)cc1-2 | 152 to 168.3 °C | 
O=c1c(Cc2cccnc2)cn2c3c(cccc13)Oc1ccccc1-2 [Example 4, 2-(3-pyridylmethyl)-3H-pyrido[3,2,1-kl]phenoxazin-3-one] |  | body weights and general symptoms [1]: nothing abnormal; death of animals until the next day after the end of administration [1]: none of the animals were found to be dead
CC(=O)N1c2ccccc2-n2cc(Cc3ccccc3)c(=O)c3cccc1c32 [Example 10, 7-acetyl-2-benzyl-3H,7H-pyrido[3,2,1-de]phenazin-3-one] |  | body weights and general symptoms [1]: nothing abnormal; death of animals until the next day after the end of administration [1]: none of the animals were found to be dead
O=c1ccn2c3c(cccc13)Nc1ccccc1-2 [Example 14, 3H,7H-pyrido[3,2,1-depphenazin-3-one] |  | body weights and general symptoms [1]: nothing abnormal; death of animals until the next day after the end of administration [1]: none of the animals were found to be dead
O=c1c(Cc2cccnc2)cn2c3ccccc3c(=O)c3cccc1c32 [Example 18, 2-(3-pyridylmethyl)-3H,7H-pyrido[3,2,1-de]acridin-3,7-dione] |  | body weights and general symptoms [1]: nothing abnormal; death of animals until the next day after the end of administration [1]: none of the animals were found to be dead
O=c1c(Cc2cccnc2)cn2c3cc(Br)ccc3c(=O)c3cc(OCc4cccnc4)cc1c32 [Example 35, 10-bromo-2-(3-pyridylmethyl)-5-(3-pyridylmethyloxy)-3H,7H-pyrido[3,2,1-de]acridin-3,7-dione] | 262.4 to 264.6 °C | pIC50 (PDE type VI): 7.82; pIC50 (PDE type V): 8.74
O=c1c(Cc2cccnc2)cn2c3c(cc(OCc4cccnc4)cc13)Sc1ccc(Br)cc1-2 [Example 39, 10-bromo-2-(3-pyridylmethyl)-5-(3-pyridylmethyloxy)-3H-pyrido[3,2,1-kl]phenothiazin-3-one] | 170.8 to 172.1 °C | pIC50 (PDE type VI): 7.21; pIC50 (PDE type V): 8.42; abnormalities in nasal mucosa during the experimental period [2]: no abnormalities; irritativeness from the observation at drug administration [2]: no irritativeness
O=c1c(Cc2cccnc2)cn2c3c(cc(OCc4ccncc4)cc13)Sc1ccc(Br)cc1-2 [Example 43, 10-bromo-2-(3-pyridylmethyl)-5-(4-pyridylmethyloxy)-3H-pyrido[3,2,1-kl]phenothiazin-3-one] | 194.2 to 196.1 °C | pIC50 (PDE type VI): 7.44; pIC50 (PDE type V): 8.55
CC(C)N(CCOc1cc2c3c(c1)c(=O)c(Cc1cccnc1)cn3-c1cc(Br)ccc1S2)C(C)C [Example 51] |  | pIC50 (PDE type VI): 6.74; pIC50 (PDE type V): 7.96
CS(=O)(=O)O.CS(=O)(=O)O.O=c1c(Cc2cccnc2)cn2c3c(cc(OCc4cccnc4)cc13)Sc1ccc(Br)cc1-2 [Example 81, 10-bromo-2-(3-pyridylmethyl)-5-(3-pyridylmethyloxy)-3H-pyrido[3,2,1-kl]phenothiazin-3-one dimethanesulfonate] | 238.7 to 242.3 °C | absorption by intranasal administration [3]: rapid and effective absorption; Tmax and MRT in comparison with oral administration ([3]; intranasal administration): shortened; duration ([3]; intranasal administration): proper duration; first-pass effect ([3]; intranasal administration): no first-pass effect; MAT ([3]; intranasal administration, dose 0.3 mg/kg): 0.2 ˜ 0.3 hr; MRT (in vivo): 48 to 60 min; Tmax (in vivo): 12 to 30 min
CCCc1nn(C)c2c(=O)[nH]c(-c3cc(S(=O)(=O)N4CCN(C)CC4)ccc3OCC)nc12 [Sildenafil, 5-[2-ethoxy-5-(4-methylpiperazin-1-ylsulphonyl)phenyl]-1-methyl-3-propyl-6,7-dihydro-1H-pyrazolo[4,3-d]pyrimidin-7-one citrate] |  | pIC50 (PDE type III): 4.89
